Data published in PubChem BioAssay AID2060490 (Molecular Pharmacology Branch, DTP, NCI, 2025).
pIC50: −log10 of the molar value.

Tested on: 885512-296-R-J2-PDC complex spheroid viability
Test: Anticancer human tumor 885512-296-R-J2-PDC patient-derived breast carcinoma cell line growth inhibition [GQUAD]
Settings: for pIC50: curve of first compound; for viability, T/C: stronger effect = lower value
Procedure, shortened: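 Viability of tumor cells grown as complex spheroids with endothelial and stromal cells, exposed to drug combinations. Top concentration at or near clinical Cmax (else 10 microM), diluted in half-log increments.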

[1] = second compound 0.0316 µM, first compound 0.0316 µM
[2] = second compound 0.0316 µM, first compound 0.316 µM
[3] = second compound 0.1 µM, first compound 0.0316 µM
[4] = second compound 0.1 µM, first compound 0.316 µM
[5] = second compound 0.316 µM, first compound 0.0316 µM
[6] = second compound 0.316 µM, first compound 0.316 µM
[7] = second compound 1 µM, first compound 0.0316 µM
[8] = second compound 1 µM, first compound 0.316 µM
[9] = second compound 3.16 µM, first compound 0.0316 µM
[10] = second compound 3.16 µM, first compound 0.316 µM
[11] = second compound 10 µM, first compound 0.0316 µM
[12] = second compound 10 µM, first compound 0.316 µM
[13] = second compound 0.0316 µM, first compound 0.000999 µM
[14] = second compound 0.0316 µM, first compound 0.00316 µM
[15] = second compound 0.0316 µM, first compound 0.00999 µM
[16] = second compound 0.0316 µM, first compound 0.0999 µM
[17] = second compound 0.1 µM, first compound 0.000999 µM
[18] = second compound 0.1 µM, first compound 0.00316 µM
[19] = second compound 0.1 µM, first compound 0.00999 µM
[20] = second compound 0.1 µM, first compound 0.0999 µM
[21] = second compound 0.316 µM, first compound 0.000999 µM
[22] = second compound 0.316 µM, first compound 0.00316 µM
[23] = second compound 0.316 µM, first compound 0.00999 µM
[24] = second compound 0.316 µM, first compound 0.0999 µM
[25] = second compound 1 µM, first compound 0.000999 µM
[26] = second compound 1 µM, first compound 0.00316 µM
[27] = second compound 1 µM, first compound 0.00999 µM
[28] = second compound 1 µM, first compound 0.0999 µM
[29] = second compound 3.16 µM, first compound 0.000999 µM
[30] = second compound 3.16 µM, first compound 0.00316 µM
[31] = second compound 3.16 µM, first compound 0.00999 µM
[32] = second compound 3.16 µM, first compound 0.0999 µM
[33] = second compound 10 µM, first compound 0.000999 µM
[34] = second compound 10 µM, first compound 0.00316 µM
[35] = second compound 10 µM, first compound 0.00999 µM
[36] = second compound 10 µM, first compound 0.0999 µM
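Also: spheroids exposed to the compounds for one week.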
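For viability, T/C in this document: percent of tumor spheroid viability relative to DMSO vehicle control wells.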

C=CC(=O)N1CCN(c2nc(=O)n(-c3c(C)ccnc3C(C)C)c3nc(-c4c(O)cccc4F)c(F)cc23)C(C)C1 (stereo unspecified) + CN(C)c1ccc(Nc2c3ccc(NC(=O)CCN4CCCC4)cc3nc3cc(NC(=O)CCN4CCCC4)ccc23)cc1
pIC50 (second compound 0.0316 µM): < 5.00
pIC50 (second compound 0.1 µM): < 5.00
pIC50 (second compound 0.316 µM): < 5.00
pIC50 (second compound 1 µM): < 5.00
pIC50 (second compound 3.16 µM): < 5.00
pIC50 (second compound 10 µM): > 7.50
viability, T/C [1]: 104%
viability, T/C (second compound 0.0316 µM, first compound 0.1 µM): 94.9%
viability, T/C [2]: 108%
viability, T/C (second compound 0.0316 µM, first compound 1 µM): 103%
viability, T/C (second compound 0.0316 µM, first compound 3.16 µM): 102%
viability, T/C (second compound 0.0316 µM, first compound 10 µM): 105%
viability, T/C [3]: 111%
viability, T/C (second compound 0.1 µM, first compound 0.1 µM): 99.5%
viability, T/C [4]: 101%
viability, T/C (second compound 0.1 µM, first compound 1 µM): 108%
viability, T/C (second compound 0.1 µM, first compound 3.16 µM): 114%
viability, T/C (second compound 0.1 µM, first compound 10 µM): 100%
viability, T/C [5]: 107%
viability, T/C (second compound 0.316 µM, first compound 0.1 µM): 97.9%
viability, T/C [6]: 103%
viability, T/C (second compound 0.316 µM, first compound 1 µM): 119%
viability, T/C (second compound 0.316 µM, first compound 3.16 µM): 99.9%
viability, T/C (second compound 0.316 µM, first compound 10 µM): 105%
viability, T/C [7]: 101%
viability, T/C (second compound 1 µM, first compound 0.1 µM): 88.8%
viability, T/C [8]: 101%
viability, T/C (second compound 1 µM, first compound 1 µM): 117%
viability, T/C (second compound 1 µM, first compound 3.16 µM): 102%
viability, T/C (second compound 1 µM, first compound 10 µM): 108%
viability, T/C [9]: 106%
viability, T/C (second compound 3.16 µM, first compound 0.1 µM): 115%
viability, T/C [10]: 120%
viability, T/C (second compound 3.16 µM, first compound 1 µM): 129%
viability, T/C (second compound 3.16 µM, first compound 3.16 µM): 103%
viability, T/C (second compound 3.16 µM, first compound 10 µM): 77.7%
viability, T/C [11]: 27%
viability, T/C (second compound 10 µM, first compound 0.1 µM): 21.7%
viability, T/C [12]: 21.9%
viability, T/C (second compound 10 µM, first compound 1 µM): 18.9%
viability, T/C (second compound 10 µM, first compound 3.16 µM): 20.6%
viability, T/C (second compound 10 µM, first compound 10 µM): 10.3%

CC[C@@]1(O)C(=O)OCc2c1cc1n(c2=O)Cc2cc3c(CN(C)C)c(O)ccc3nc2-1 + CN(C)c1ccc(Nc2c3ccc(NC(=O)CCN4CCCC4)cc3nc3cc(NC(=O)CCN4CCCC4)ccc23)cc1
pIC50 (second compound 0.0316 µM): 7.71
pIC50 (second compound 0.1 µM): 7.66
pIC50 (second compound 0.316 µM): 7.69
pIC50 (second compound 1 µM): 7.69
pIC50 (second compound 3.16 µM): 7.70
pIC50 (second compound 10 µM): > 9.00
viability, T/C [13]: 105%
viability, T/C [14]: 93.1%
viability, T/C [15]: 80.7%
viability, T/C [1]: 28.4%
viability, T/C [16]: 6.28%
viability, T/C [2]: 4.08%
viability, T/C [17]: 102%
viability, T/C [18]: 95.5%
viability, T/C [19]: 83.5%
viability, T/C [3]: 34.9%
viability, T/C [20]: 6.9%
viability, T/C [4]: 3.94%
viability, T/C [21]: 95.9%
viability, T/C [22]: 103%
viability, T/C [23]: 80.7%
viability, T/C [5]: 30.2%
viability, T/C [24]: 8.66%
viability, T/C [6]: 5.73%
viability, T/C [25]: 99%
viability, T/C [26]: 89.1%
viability, T/C [27]: 78.9%
viability, T/C [7]: 32.2%
viability, T/C [28]: 8.09%
viability, T/C [8]: 7.14%
viability, T/C [29]: 85.8%
viability, T/C [30]: 78.5%
viability, T/C [31]: 82.5%
viability, T/C [9]: 28.2%
viability, T/C [32]: 11.3%
viability, T/C [10]: 5.81%
viability, T/C [33]: 20.1%
viability, T/C [34]: 23.4%
viability, T/C [35]: 18.2%
viability, T/C [11]: 10.8%
viability, T/C [36]: 7.67%
viability, T/C [12]: 5.22%

CCc1c2c(nc3ccc(O)cc13)-c1cc3c(c(=O)n1C2)COC(=O)[C@]3(O)CC + CN(C)c1ccc(Nc2c3ccc(NC(=O)CCN4CCCC4)cc3nc3cc(NC(=O)CCN4CCCC4)ccc23)cc1
pIC50 (second compound 0.0316 µM): > 9.00
pIC50 (second compound 0.1 µM): > 9.00
pIC50 (second compound 0.316 µM): > 9.00
pIC50 (second compound 1 µM): > 9.00
pIC50 (second compound 3.16 µM): > 9.00
pIC50 (second compound 10 µM): > 9.00
viability, T/C [13]: 18.3%
viability, T/C [14]: 6.69%
viability, T/C [15]: 3.15%
viability, T/C [1]: 1.94%
viability, T/C [16]: 1.66%
viability, T/C [2]: 1.39%
viability, T/C [17]: 15.7%
viability, T/C [18]: 7.02%
viability, T/C [19]: 3.83%
viability, T/C [3]: 2.59%
viability, T/C [20]: 1.42%
viability, T/C [4]: 1.57%
viability, T/C [21]: 13.1%
viability, T/C [22]: 7.17%
viability, T/C [23]: 3.49%
viability, T/C [5]: 2.63%
viability, T/C [24]: 1.58%
viability, T/C [6]: 1.1%
viability, T/C [25]: 19.3%
viability, T/C [26]: 6.88%
viability, T/C [27]: 3.62%
viability, T/C [7]: 2.24%
viability, T/C [28]: 1.82%
viability, T/C [8]: 1.23%
viability, T/C [29]: 18.7%
viability, T/C [30]: 11.3%
viability, T/C [31]: 4.83%
viability, T/C [9]: 2.33%
viability, T/C [32]: 1.61%
viability, T/C [10]: 1.26%
viability, T/C [33]: 12.8%
viability, T/C [34]: 10.4%
viability, T/C [35]: 6.78%
viability, T/C [11]: 3.28%
viability, T/C [36]: 1.43%
viability, T/C [12]: 0.56%
